Data on one substance can be found in patent US20200370050A1, “CELL PROLIFERATION INHIBITOR AND CANCER TREATMENT OR PREVENTION PHARMACEUTICAL COMPOSITION INCLUDING CELL PROLIFERATION INHIBITOR” (priority 2017, published 2020).

For one assay, the system named is DLD-1 cells. The assay can be described thus: Effect of CRAF protein fragment on cell growth, number of living cells by WST assay (CCK-8). Particulars: 1.0×10^4 cells seeded (similar tendency at 2.0×10^4), transfected with pcDNA-hRAF384, 100 ng plasmid per well, 0-96 h, control empty vector pcDNA3.1(+), FIG. 5 part B. The class given is cell-based, human. As for the experimental part: (§1) The CRAF protein fragment expression plasmid pcDNA-hRAF384 (5807 bp) was prepared by cloning the region of positions 332 to 718 of the human CRAF gene (SEQ ID NO: 6) downstream of a CMV (cytomegalovirus) promoter in the vector pcDNA3.1(+) (Thermo Fisher Scientific). The plasmid expresses a CRAF protein fragment (a polypeptide having the amino acid sequence set forth in SEQ ID NO: 9) of positions 56 to 184 of the human CRAF protein (SEQ ID NO: 5).
DLD-1 cells (KRAS mutation-positive human colon cancer cells) were obtained from JCRB Cell Bank of National Institutes of Biomedical innovation, Health and Nutrition. Since DLD-1 cells have KRAS in which the position 13 amino acid glycine (G) is activatingly mutated to aspartic acid (D), the RAS/RAF/MEK/ERK signaling cascade is activated in DLD-1 cells.
(§2) The HCT116 or DLD-1 cells were seeded at 1.0×10^4 or 2.0 x 10^4 cells per well of 96-well plates and cultured in a McCoy's SA medium in an environment of 5% CO2 at 37° C. for 24 h. The cultured cells were transfected with the CRAF protein fragment expression plasmid pcDNA-hRAF384 using Lipofectamine 3000 (Thermo Fisher Scientific). As a control, the cells were transfected with the empty vector pcDNA3.1(+) (Thermo Fisher Scientific). […]
(§3) Immediately (0 h), 24 h, 48 h, 72 h, and 96 h after the cultivation, the cells were collected and measured for the number of living cells by WST assay. […]

A further assay has as its system HCT116 cells. Described as above. In kind it is cell-based, human. Particulars: 1.0×10^4 cells seeded (similar tendency at 2.0×10^4), transfected with pcDNA-hRAF384, 100 ng plasmid per well, 0-96 h, control empty vector pcDNA3.1(+), FIG. 5 part A. On the procedure: as §1
HCT116 cells (KRAS mutation-positive human colon cancer cells) were obtained from ATCC. Since HCT116 cells have KRAS in which the position 13 amino acid glycine (G) is activatingly mutated to aspartic acid (D), the RAS/RAF/ME/ERK signaling cascade is activated in HCT116 cells.
as §2, §3

“CRAF protein fragment: Polypeptide of SEQ ID NO: 9, positions 56 to 184 of human CRAF protein, expressed from plasmid pcDNA-hRAF384”: the “cell growth (number of living cells) as compared to the control” value in the assay on DLD-1 cells and with HCT116 cells was “reduced growth” each time.
